Reference: patent US8106054B2, “Crystalline pyridazine compound” (priority 2007, dated 2012)
≈ marks a conversion by molar mass, not a printed value.

Tests used:
physchem = type: physicochemical; conditions: pH 2, aqueous buffer
[1] = Phase-1 first-in-human trial, pharmacokinetics; type: in vivo
From the text: A randomized, double-blind, placebo controlled trial was designed to evaluate the safety/tolerability, pharmacokinetics and antiviral activity of single (in Part A) and multiple (in Part B) doses of Compound (1) (oleic acid solution, above) in subjects chronically infected with HCV genotype 1 (GT-1) without decompensated cirrhosis.
In completed Part A, five successive cohorts of 6 subjects were randomized (5:1) to receive single ascending doses of Compound 1 (40, 120, 240, 240-with food, or 480 mg) or placebo. In ongoing Part B, four successive cohorts of 12 subjects are randomized (10:2) to receive multiple ascending doses of Compound 1 (40 mg BID, 120 mg BID, 240 mg QD, 240 mg BID) or placebo, over 8 days.

[2] = design: species or system human; conditions: in vivo
[3] = tested on: HCV genotype 1 (Con-1/lucneo) replicon; type: cell-based; conditions: 3 days, absence of HSA
Procedure: HCV genotype 1 (Con-1/lucneo) and 1a (H77/neo) replicon cells were incubated with serial dilutions of compound (1) 2′C-methyl adenosine (2′CMeA) or IFNα for 3 days in the absence or presence of 40 mg/mL human serum albumin (HSA).

| Compound | solubility (physchem) [µg/mL] | mean concentration 24 hours after dosing relative to protein binding adjusted in vitro HCV GT-1 replicon EC50 ([1]; 240 mg fasted single dose) [fold] | increase in systemic exposure with a high fat meal ([1]; single dose 240 mg with food vs fasted) | tolerability of single doses [2] | EC50 HCV 1-lucneo [3] [IU/mL] |
| --- | --- | --- | --- | --- | --- |
| Fc1ccccc1-c1nc2ccn(Cc3ccc(-c4ccc(C(F)(F)F)cc4C(F)(F)F)nn3)cc-2n1 [Compound 1, 5-((6-(2,4-Bis(trifluoromethyl)phenyl]pyridazin-3-yl)methyl)-2-(2-fluorophenyl)-5H-imidazo[4,5-c]pyridine] | 458 (≈ 885 µM) | ~7 | approximately 2 fold | well tolerated, with no serious or treatment-limiting adverse events (AEs) reported | – |
| IFN-α | – | – | – | – | 2 |
